Data set [1] relates to flies expressing Opie2-tra-pac. Put plainly: Sex selection of Opie2-tra-pac flies on puromycin diet. It counts as in vivo, Drosophila melanogaster. Conditions: larvae fed diet with increasing concentrations of puromycin; n=500. The text has this:
Thus, the sex specific introns can be interchangeably used with either antibiotic resistance genes to select for either males or females.

Data set [2] concerns transgenic flies expressing the pac gene. Put plainly: Antibiotic diet fed to transgenic flies expressing pac gene. The class given is in vivo, Drosophila. Conditions: diet with increasing concentrations of puromycin; pac under Opie2 promoter. The text has this:
To determine if the toxicity of puromycin and neomycin could be negated, antibiotic resistance genes pac and neo were used. Two types of transgenic flies were generated each expressing one type of antibiotic resistance gene under the control of the promoter Opie2. One type of transgenic fly expressed the pac gene and the other expressed the neo gene. Transgenic flies were fed a diet supplemented with increasing concentrations of either puromycin or G418, respectively. […] Additionally, these transgenic flies were quite healthy with high fitness. Thus, the pac and neo genes could be used to counter the toxicity of […], respectively.

Data set [3] has as its system genetically engineered insects containing both antibiotic resistance markers. The experiment in a line: Sex selection of flies carrying combined vector (Opie2-tra-neo and Opie2-dsx-pac). The class given is in vivo, Drosophila.
Text: The expanded insect population containing both males and females was transferred to a diet supplemented with puromycin.
Data set [4] relates to Drosophila wild-type larvae. The experiment in a line: Antibiotic toxicity test, wild-type larvae fed antibiotic-supplemented diet. The class given is in vivo, Drosophila melanogaster. Conditions: for first instar death: larvae fed antibiotic-supplemented diet at around 1 mg/ml, n=10,000; for concentration at which antibiotic was highly toxic: wild-type larvae fed increasing amounts in diet. How it is done:
As proof of principle, an embodiment of this system was developed for the fruit fly Drosophila melanogaster. As an initial test of antibiotic toxicity, Drosophila wild-type larvae were separately fed increasing amounts of either G418 or puromycin. Both antibiotics were highly toxic around 1 mg/ml such that when larvae were fed antibiotic-supplemented diet at this concentration, 100% first instar death was observed (n=10,000). Thus, these two antibiotics can be used as selection molecules in this system.

The subject of data set [5] is Opie2-dsx-pac expressing flies. Put plainly: Sex selection of Opie2-dsx-pac flies on puromycin diet. It counts as in vivo, Drosophila melanogaster. Particulars: diet with increasing concentrations of puromycin; at ~2 mg/ml; n=500. From the text:
(§1) The possibility of utilizing the endogenous sex determination machinery to promote sex-specific antibiotic resistance-based selection was next tested. Sex-specific introns dsx and tra were incorporated into the coding frames of the antibiotic resistance genes pac and neo, respectively, and two types of flies were generated, one type expressing Opie2-tra-neo and another type expressing Opie2-dsx-pac. The dsx intron can be excised by splicing only in males and the tra intron can be excised by splicing only in females. This precise sex-specific splicing of these two introns is dictated by the sex determination machinery of the fly. […] The Opie2-tra-neo expressing flies were fed diet containing increasing concentrations of G418 resulting in 100% female progeny at ˜5 mg/ml (n=2,000). The Opie2-dsx-pac expressing flies were fed diet containing increasing concentrations of puromycin resulting in 100% male progeny at ˜2 mg/ml (n=500).

Data set [6] has as its system Opie2-tra-neo expressing flies. The experiment in a line: Sex selection of Opie2-tra-neo flies on G418 diet. Conditions: diet with increasing concentrations of G418; at ~5 mg/ml; n=2,000. The class given is in vivo, Drosophila melanogaster.
Text: as §1

The subject of another data set is insects. Particulars: tetracycline in diet; Zeh et al., 2012; cited from earlier work.

Data on three molecules can be found in patent publication US20150237838A1, “REGULATION OF INSECT POPULATIONS” (CALIFORNIA INSTITUTE OF TECHNOLOGY, priority 2014, published 2015).

For the molecule `COc1ccc(C[C@H](N)C(=O)N[C@H]2[C@@H](O)[C@H](n3cnc4c(N(C)C)ncnc43)O[C@@H]2CO)cc1` [puromycin], in data set [1], the female progeny is recorded as 100%. The “toxicity of antibiotic in resistance-gene flies” value in data set [2] was “negate the toxicity”. Moreover, in data set [3] (diet supplemented with increasing concentrations of puromycin (FIG. 2)), the males selected is 100%. Further, in data set [3] (puromycin-supplemented diet, first instar larval stage), the “sex-selective killing of progeny” value was “female progeny were selectively killed”. In data set [4], the first instar death is given as 100% and the “concentration at which antibiotic was highly toxic” value was “around 1 mg/ml”. For the same molecule, the male progeny in data set [5] is given as 100%.

`CN[C@@H]1[C@@H](O)[C@@H](O[C@@H]2[C@@H](O)[C@H](O[C@H]3O[C@H]([C@@H](C)O)[C@@H](O)[C@H](O)[C@H]3N)[C@@H](N)C[C@H]2N)OC[C@]1(C)O` [G418]: in data set [6], the female progeny was found to be 100%. In data set [3] (diet supplemented with increasing concentrations of G418 (FIG. 3)), the females selected came out at 100%. In data set [4], the first instar death is 100% and the “concentration at which antibiotic was highly toxic” value is “around 1 mg/ml”.

Consider `CN(C)[C@@H]1C(O)=C(C(N)=O)C(=O)[C@@]2(O)C(O)=C3C(=O)c4c(O)cccc4[C@@](C)(O)[C@H]3C[C@@H]12` [tetracycline], for which the “side effect on insects (fitness)” value in the data set with insects is recorded as “large fitness cost”.
